Assays:
HCT116 cells [1] = test: Proliferation capability (clonogenic) assay; type: cell-based, human; conditions: 2 Gy and 4 Gy tested
Procedure: HCT116 cell line was used to evaluate the ability of a single cell to form colonies after exposure to ^225Ac-iPSMA-RGD treatment, in triplicate. We seeded 500 cells in each well (six-well plate) and treated them with 4.5 Bq/well (2 Gy), […] (4 Gy), and control (no treatment) for 1 h, dissolved in 2 mL of RPMI medium. After exposure, the treatments and medium were removed and replaced with fresh medium. The plates were incubated for 15 days. Surviving colonies were fixed for 10 min with 4% paraformaldehyde at room temperature and washed with type 1 water. Afterward, they were stained with 0.1% crystal violet for 30 min, washed with purified water, and dried. For quantification, 10% acetic acid was added for 5 min to extract the crystal violet and the absorbance was measured at 590 nm in a microplate absorbance reader (EpochTM; BioTek Instruments, Winooski, VT, USA). Statistical analysis was performed with two-way ANOVA followed by Tukey’s multiple comparisons test using GraphPad Prism 5.0 Software. Data are shown as mean ± SEM. A p < 0.05 was considered statistically significant.

HCT116 cells [2] = test: Apoptosis, Muse Caspase-3/7 kit with 7-AAD, flow cytometry; type: cell-based, human
Procedure: Apoptosis in the colorectal HCT116 cancer cell line was evaluated in triplicate, using the Muse^TM Caspase-3/7 kit, Cat No. MCH100108 (Merck Millipore, Burlington, MA, USA). Briefly, cells were seeded in cell culture flasks at a density of 1 × 10^6 cells and exposed to 4.5 Bq of (2 Gy) and 9.0 Bq […] (4 Gy) of ^225Ac-iPSMA-RGD. Untreated cells were used as the control group and the positive control was prepared through nutrient starvation for 24 h. First, cells were trypsinized and suspended in 50 µL of 1X Assay Buffer BA (1 × 10^6 cells/mL). Then, 5 µL of Caspase-3/7 reagent working solution was added at 37 °C with 5% of CO2 for 30 min. After incubation, 150 µL of Caspase 7-AAD working solution was added to each tube. Finally, tubes were incubated for 5 min, protected from light, and fluorescent intensities were examined by flow cytometry using a Muse Cell Analyzer (Merck Millipore, Burlington, MA, USA) and were conducted in triplicate).

[3] = system: phosphorylated H2A.X in HCT116 cells; test: DNA double-stranded breaks assay (phosphorylated H2A.X foci); type: cell-based, human; conditions: HCT116, 2 Gy and 4 Gy
Procedure: For the evaluation of DNA double-stranded breaks (DSBs), the phosphorylation of the Ser-139 gamma histone variant H2A.X (γH2A.X) was used as a biomarker. HCT116 cells were grown on a glass slide after exposure of 4.5 Bq (2 Gy) and 9.0 Bq (4 Gy) of ^225Ac-iPSMA-RGD for 60 min. The anti-phospho-histone H2A.X (ser139) cl 6L16 ZooMAb (Cat. ZRB05636, Merck, Darmstadt, Germany) antibody was used as the primary antibody. […] To quantify the foci, clear and easily distinguishable dots were counted. At least 30 cells were imaged per slide, and the average number of foci per cell was calculated. Statistical analysis was performed with two-way ANOVA followed by Tukey’s multiple comparisons test using GraphPad Prism 5.0 Software. Data are shown as mean ± SEM. A p < 0.05 was considered statistically significant.

[4] = system: HCT116 tumor and lung, spleen, kidney, liver tissues; test: Histology (H&E) and immunohistochemistry of organs and tumor; type: in vivo, mice
Procedure: Formalin-fixed paraffin-embedded samples (lung, spleen, kidney and tumor), were sectioned at 4 µm sections and stained with H&E. For immunohistochemical reactions, samples were deparaffinized, hydrated, and subjected to an antigen retrieval protocol (slides were immersed in a prewarmed Citrate-EDTA buffer solution (10mM citric acid, 2 mM EDTA, 0.05% Tween 20, pH 7.0) at 100 °C for 30 min. Endogenous peroxidase was then blocked with 0.9% hydrogen peroxide (H2O2) solution for 5 min. To prevent non-specific binding, the samples were incubated with 5% bovine serum albumin (BSA) for 10 min. After subsequent washes with phosphate-buffered saline (PBS)-Tween (0.05%), samples were incubated overnight at 4 °C with primary monoclonal rabbit anti- Ki-67 [SP6] antibody (Biocare Medi-cal-CRM 325A, Pacheco, CA, USA). After subsequent washing, samples were incubated with secondary HRP donkey anti-rabbit IgG (minimal x-reactivity) antibody (Biolegend-406401 San Diego, CA) for 1 h. For mitochondrial permeabilization processes estimation, the samples were incubated overnight at 4 °C with unconjugated Bcl-2 (C2) sc-7882 antibody (Santa Cruz Biotechnology Inc., Dallas, TX, USA). As a secondary antibody, we used m-IgG1 BP-HRP: sc-525408 (Santa Cruz Biotechnology Inc., Dallas, TX, USA). Samples were incubated for 1 h. For apoptotic cell estimation, unconjugated active (cleaved) Caspase-3 Monoclonal Antibody bsm-33199M (Bioss Inc., Woburn, MA, USA) was used. The samples were incubated overnight at 4 °C, and the secondary antibody was goat Anti-Mouse IgG (Fc specific)–peroxidase antibody A2554 (Millipore-Sigma Aldrich, Merck KGaA, Darmstadt, Germany). Samples were incubated for 1 h. Both primary and secondary antibodies were used at a 1:100 dilution. To visualize the immunoreactions, the samples were washed with distilled water and Tris-buffered saline-Tween (TBST) for 5 min, and the diaminobenzidine (DAB) (Dako Liquid DAB+ Substrate Chromogen System K3468) was applied for 60 s. Excess chromogen was removed by washing with PBS-Tween. Finally, the slides were counterstained with Harris hematoxylin, dehydrated, and coverslipped. As a negative control, immunoreactions were performed using the same method with PBS instead of the primary antibody. Images were captured using a Lumenera INFINITY X-32 MP camera in a Carl Zeiss Axiostar microscope.

[5] = HCT116 tumor-bearing mice, 11 days after administration (37 kBq)
Procedure: All animal procedures followed the Ethical Regulations for the Handling of Laboratory Animals (NOM-062-ZOO-1999) and the requirements of the Institutional Animal Care and Use Committee, according to an approved protocol (CICUAL-08-2018-2021). […] Mice were injected with 3.7 kBq (50 µL) of ^225Ac-iPSMA-RGD and necropsied at 1, 3, 24, 72, and 96 h (n = 3). The liver, heart, kidney, pancreas, lung, spleen, small intestine, and stomach were measured using the Francium-221 photopeak (218 keV) in a hyperpure germanium gamma spectrometer (Ortec, Atlanta, GA, USA). Results were recorded as a percentage of injected dose (%ID) per organ. Blood and bone samples were also dissected, and the associated activity was recorded as %ID/g. A second group of mice was inoculated subcutaneously with 1 × 10^6 HCT116 cells. […] Animals were necropsied on day 11 post-treatment, as described above. Radioisotopic/X-ray ex vivo images of the source organs and tumor were obtained in a preclinical imaging system (Bruker, XTREME, Billerica, MA, USA).

in vitro = conditions: human, diluted human serum (1:5, v/v)
Procedure: After adding 200 μL of ^225Ac-iPSMA-RGD to the diluted human serum (1:5, v/v) in a vial (n = 3), the mixture was kept at 37 °C in a dry bath. At 0.5 h, 1 h, and 3 h intervals, 200 μL of each vial was removed and 1 mL of methanol: acetonitrile (1:1, v/v) was added to precipitate the proteins. The total activity was measured in a NaI(Tl) well-type detector by 218 keV gamma emission of Fr-221 and the solution was centrifuged at 3000 rpm for 5 min. The supernatant was then decanted and the pellet measured to determine ^225Ac binding proteins.

[6] = HCT116 tumor, immunohistochemistry

N=C(N)NCCC[C@@H]1NC(=O)[C@H](CCCCNC(=O)CCCN2C(=O)CC(SC[C@H](NC(=O)c3ccc(NNC(=S)Nc4ccc(CC5CN(CC(=O)O)CCN(CC(=O)O)CCN(CC(=O)O)CCN(CC(=O)O)CCN(CC(=O)O)CCN5CC(=O)O)cc4)nc3)C(=O)N[C@@H](Cc3ccc4ccccc4c3)C(=O)NCCCC[C@H](NC(=O)N[C@@H](CCC(=O)O)C(=O)O)C(=O)O)C2=O)NC(=O)[C@@H](Cc2ccccc2)NC(=O)[C@H](CC(=O)O)NC(=O)CNC1=O (stereo partly shown) [^225Ac-iPSMA-RGD, ^225Ac-HEHA-HYNIC-iPSMA-RGD, metal not drawn]
Reduction of proliferation capability (HCT116 cells [1]): 65% | Increase in apoptotic/dead cells (HCT116 cells [2]; HCT116, 2 Gy): approximately 24.6% | Increase in apoptotic/dead cells (HCT116 cells [2]; HCT116, 4 Gy): ~31.2% | Average foci of phosphorylated H2A.X [3]: 19 | Bcl-2 expression in tumor [4, 6]: inhibited the Bcl-2 expression | Caspase-3 activity in tumor [4, 6]: upregulated the Caspase-3 activity | Tumor proliferative activity (Ki67 expression) vs untreated mice [4, 6]: significantly lower | Histological (H&E) evaluation of lung, spleen, kidney and liver ([4]; treated mice vs untreated mice): no pathologic changes | Tissue retention in ex-vivo radioisotopic imaging [5]: the tissue accumulating the radiotracer for the longest time is the tumor | fraction unbound at 3 h (in vitro): 0.923

— PMC10705946, “^225Ac-iPSMA-RGD for Alpha-Therapy Dual Targeting of Stromal/Tumor Cell PSMA and Integrins” (International Journal of Molecular Sciences, 2023)
